The values that follow come from ChEMBL document CHEMBL2169864, “Binding Model for the Interaction of Anticancer Arylsulfonamides with the p300 Transcription Cofactor” (ACS Med Chem Lett, 2012).

Assay [1] deals with Hypoxia-inducible factor 1-alpha (Homo sapiens) (UniProt Q16665). Description: Binding affinity to HIF1alpha in human LN229 cell nuclear extracts by Western blot analysis. Background: A western blot detects proteins with antibodies after separation by electrophoresis.
For assay [2], the target named is T1, Histone acetyltransferase p300 (Homo sapiens, UniProt Q09472). Description: Binding affinity to P300 in human LN229 cell nuclear extracts by Western blot analysis.
T1 sequence (Q09472 whole entry, the tested form may be a part): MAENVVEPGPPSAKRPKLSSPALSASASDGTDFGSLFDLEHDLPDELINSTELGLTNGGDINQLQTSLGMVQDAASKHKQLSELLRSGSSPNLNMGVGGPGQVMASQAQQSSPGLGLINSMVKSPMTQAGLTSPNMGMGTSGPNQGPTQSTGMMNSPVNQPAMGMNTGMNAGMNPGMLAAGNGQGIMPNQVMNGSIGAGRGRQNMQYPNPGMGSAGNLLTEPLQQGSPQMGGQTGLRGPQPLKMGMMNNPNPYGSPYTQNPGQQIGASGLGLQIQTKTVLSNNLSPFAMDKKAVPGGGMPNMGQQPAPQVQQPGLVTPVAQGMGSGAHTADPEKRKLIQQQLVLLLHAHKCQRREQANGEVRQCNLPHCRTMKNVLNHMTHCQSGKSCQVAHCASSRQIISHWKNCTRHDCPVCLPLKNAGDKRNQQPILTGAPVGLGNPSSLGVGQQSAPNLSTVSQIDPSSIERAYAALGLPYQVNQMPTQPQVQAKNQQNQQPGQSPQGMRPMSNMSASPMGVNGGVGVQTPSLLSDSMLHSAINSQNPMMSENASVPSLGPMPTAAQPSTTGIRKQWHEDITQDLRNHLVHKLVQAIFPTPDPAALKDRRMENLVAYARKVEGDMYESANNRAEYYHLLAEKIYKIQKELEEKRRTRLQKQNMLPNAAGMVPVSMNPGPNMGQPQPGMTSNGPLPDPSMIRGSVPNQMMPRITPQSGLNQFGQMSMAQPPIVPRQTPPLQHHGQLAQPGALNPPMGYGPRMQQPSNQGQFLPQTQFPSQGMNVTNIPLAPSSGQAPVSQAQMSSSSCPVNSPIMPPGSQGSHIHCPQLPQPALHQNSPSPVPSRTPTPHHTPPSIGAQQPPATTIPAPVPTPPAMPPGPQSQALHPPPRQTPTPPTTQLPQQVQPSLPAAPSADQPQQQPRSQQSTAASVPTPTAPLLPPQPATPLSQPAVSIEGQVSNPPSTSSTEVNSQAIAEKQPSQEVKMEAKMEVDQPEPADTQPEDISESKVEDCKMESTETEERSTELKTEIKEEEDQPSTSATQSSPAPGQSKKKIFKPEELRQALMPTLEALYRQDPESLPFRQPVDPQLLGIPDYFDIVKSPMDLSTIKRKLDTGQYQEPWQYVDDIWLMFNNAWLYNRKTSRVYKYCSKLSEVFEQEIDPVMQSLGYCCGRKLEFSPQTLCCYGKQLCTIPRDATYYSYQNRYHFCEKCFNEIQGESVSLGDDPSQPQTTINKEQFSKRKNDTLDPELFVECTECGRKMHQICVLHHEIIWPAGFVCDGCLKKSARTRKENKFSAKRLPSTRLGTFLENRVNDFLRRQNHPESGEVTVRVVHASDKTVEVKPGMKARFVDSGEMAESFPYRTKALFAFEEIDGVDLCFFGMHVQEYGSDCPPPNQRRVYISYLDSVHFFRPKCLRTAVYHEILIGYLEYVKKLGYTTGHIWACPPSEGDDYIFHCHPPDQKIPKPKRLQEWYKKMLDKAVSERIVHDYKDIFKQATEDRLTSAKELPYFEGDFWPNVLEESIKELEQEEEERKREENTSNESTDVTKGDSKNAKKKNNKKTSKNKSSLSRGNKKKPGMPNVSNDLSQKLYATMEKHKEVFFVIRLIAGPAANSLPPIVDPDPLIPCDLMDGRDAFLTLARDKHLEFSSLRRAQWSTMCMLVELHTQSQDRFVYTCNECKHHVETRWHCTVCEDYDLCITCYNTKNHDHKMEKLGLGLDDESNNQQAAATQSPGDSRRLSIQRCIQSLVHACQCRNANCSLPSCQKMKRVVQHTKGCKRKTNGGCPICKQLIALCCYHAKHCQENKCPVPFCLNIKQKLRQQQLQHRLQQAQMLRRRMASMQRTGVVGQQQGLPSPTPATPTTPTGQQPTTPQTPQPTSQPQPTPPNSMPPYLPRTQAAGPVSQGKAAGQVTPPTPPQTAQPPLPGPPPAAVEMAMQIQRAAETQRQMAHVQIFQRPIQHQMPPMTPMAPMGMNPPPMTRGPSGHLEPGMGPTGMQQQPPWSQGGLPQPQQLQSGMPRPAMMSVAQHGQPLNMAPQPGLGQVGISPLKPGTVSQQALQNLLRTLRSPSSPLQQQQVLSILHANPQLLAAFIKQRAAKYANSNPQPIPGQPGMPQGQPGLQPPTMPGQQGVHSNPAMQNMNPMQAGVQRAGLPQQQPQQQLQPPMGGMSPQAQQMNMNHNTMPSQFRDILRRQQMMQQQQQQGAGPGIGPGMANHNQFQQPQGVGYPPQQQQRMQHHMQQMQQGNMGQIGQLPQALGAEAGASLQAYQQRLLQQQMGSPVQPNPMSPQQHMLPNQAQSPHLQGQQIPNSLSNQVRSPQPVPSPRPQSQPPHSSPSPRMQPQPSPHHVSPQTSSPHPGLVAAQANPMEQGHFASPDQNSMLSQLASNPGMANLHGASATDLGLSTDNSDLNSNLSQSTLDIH
Assay [3] has as its target T1, Histone acetyltransferase p300. Briefly: Binding affinity to recombinant P300 CH1 domain assessed as dissociation constant by surface plasmon resonance analysis. (In general: In SPR one partner is held on a chip, and binding of the other changes the refractive index at the surface.)
Assay [4] has the same target. Briefly: Binding affinity to GST-tagged recombinant P300 CH1 domain expressed in Escherichia coli BL21 by Coomassie staining-based gel electrophoresis. The conditions noted are these: tested as the 14C-labelled form.

Calls of active or inactive are those of the source. No cut-off for these calls is given here.

Hypoxia-inducible factor 1-alpha (Homo sapiens), sequence (Q16665 whole entry, looked up): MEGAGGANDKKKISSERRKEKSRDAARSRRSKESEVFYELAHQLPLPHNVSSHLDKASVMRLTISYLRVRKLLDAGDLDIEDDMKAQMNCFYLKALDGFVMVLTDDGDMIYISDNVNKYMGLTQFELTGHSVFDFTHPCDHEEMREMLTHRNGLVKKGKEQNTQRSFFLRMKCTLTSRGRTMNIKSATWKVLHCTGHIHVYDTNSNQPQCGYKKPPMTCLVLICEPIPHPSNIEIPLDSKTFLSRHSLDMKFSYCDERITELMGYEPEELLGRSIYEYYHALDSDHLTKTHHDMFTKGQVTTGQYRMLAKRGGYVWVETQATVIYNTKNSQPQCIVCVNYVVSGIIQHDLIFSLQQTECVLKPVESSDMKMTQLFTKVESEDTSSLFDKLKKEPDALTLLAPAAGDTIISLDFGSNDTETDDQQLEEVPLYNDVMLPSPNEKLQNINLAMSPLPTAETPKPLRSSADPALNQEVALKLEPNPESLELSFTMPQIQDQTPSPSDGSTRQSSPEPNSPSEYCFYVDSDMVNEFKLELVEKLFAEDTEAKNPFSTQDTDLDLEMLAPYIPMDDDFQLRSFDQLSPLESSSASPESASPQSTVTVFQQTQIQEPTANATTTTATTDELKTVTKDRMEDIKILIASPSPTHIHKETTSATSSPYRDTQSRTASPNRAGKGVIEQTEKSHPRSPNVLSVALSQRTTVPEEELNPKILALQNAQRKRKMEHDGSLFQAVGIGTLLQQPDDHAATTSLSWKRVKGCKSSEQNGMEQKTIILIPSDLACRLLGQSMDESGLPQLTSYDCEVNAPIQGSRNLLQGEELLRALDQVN

As to `COc1ccc(S(=O)(=O)N(Cc2ccc3c(c2)C=CC(C)(C)O3)c2ccccc2)cc1OC`, in assay [1], the result was inactive. The outcome in assay [2] and in assay [4] was Active. The Kd (commonly the concentration at which binding is half-saturated) in assay [3] was 345 nM.
